According to patent publication US20040237845A1 (priority 2002, published 2004):

Format: physicochemical
Details: kaolin clay slurry, no further addition of acid or chlorine donor

Sodium Chlorite [stabilized chlorine dioxide]
persistence of oxidizing/biocidal effects: up to 14 days
